This is an account of results in patent US20250057793A1, “BENZOIC ACID SALTS FOR TREATMENT OF NERVOUS SYSTEM INJURIES AND DISORDERS” (The United States Government as represented by the …, priority 2021, published 2025).

Each structure is given as a SMILES string.

The test system of series [1] is mice with traumatic brain injury (TBI). Briefly: Remyelination in corpus callosum of mice with TBI (PLP/A2B5 double-labeling). It is filed as in vivo, mouse. The conditions noted are these: 50 mg/kg body weight/day oral gavage. On the procedure:
FIG. 4 are images of the corpus collosum in mice showing the levels of proteolipid protein (PLP) and A2B5, a marker of oligodendroglial progenitor cells (OPC), in the experimental conditions after 21 days. Oral administration of sodium benzoate (NaB), but not sodium formate (NaFO), stimulates remyelination in mice with traumatic brain injury (TBI). Mice (n=6 per group) were induced moderate TBI by controlled cortical impact (CCI). Starting from 2 hours after TBI, mice were treated with NaB and NaFO (50 mg/kg body weight/day; mixed with water) orally via gavage. After 21 d of treatment, brain sections were double-labeled for PLP and A2B5.
Proteolipid protein (PLP) is a marker of oligodendrocytes and A2B5 is a marker of oligodendroglial progenitor cells (OPC). After 21 days of treatment, brain sections were double-labeled with antibodies against PLP and A2B5.

For a further series, the system named is mice with TBI. Briefly: Side effects of oral NaB in TBI mice. Type of series: in vivo, mouse.
The subject of series [2] is oligodendroglial progenitor cells (OPCs). Briefly: Maturation of oligodendroglial progenitor cells (OPCs) into oligodendrocytes. It is filed as cell-based, mouse. The method, then:
FIGS. 15A-15L: Effect of sodium benzoate (NaB) on the maturation of oligodendroglial progenitor cells (OPCs) into oligodendrocytes. OPCs were isolated from P1˜P2 neonatal mouse pups, cultured in OPC media for 4 days in vitro (DIV) followed by treatment with 100 μM NaB and sodium formate (NaFO) in the absence of FGF and PDGF.
FIG. 15A) After 18 h of 100 μM NaB treatment in serum-free condition, cells were fixed and then dual immuno-stained with MBP (red) and OPC marker NG2 (green). Nuclei were stained with DAPI (blue). FIG. 15B) Similarly, OPCs were stained with PLP (red) and A2B5 (green) under similar treatment condition. Quantification of MBP+(FIG. 15C), NG2+(FIG. 15D), PLP+(FIG. 15E), and A2B5+(FIG. 15F) cells as a percentage of total cells (DAPI+). Average 5 fields per slide, total 3 slides. Results are mean+SEM. ***p<0.001. FIG. 15G) For protein expression, cells were treated with different doses of NaB for 18 h under serum free condition and then immunoblotted with PLP and MOG. FIG. 15H) Densitometric analyses of the bands relative to beta actin were done for PLP and MOG. ^ap<0.001 vs. control PLP; ^bp<0.005 vs. control MOG. FIG. 151) Cells were treated with NaB (100 μM) and NaFO (100 μM) for 4 h under serum-free condition followed by monitoring the mRNA expression of myelin-specific genes by real-time PCR (ap<0.01 vs. control PLP; ^bp<0.01 vs. control MOG; cp<0.01 vs. control MBP; dp<0.01 vs. control CNPase). OPCs were cultured on the top of randomly-oriented polycaprolactone nanofibers (Nanofiber Solutions; Cat #Z694576) for 7 days. After that, these cells were treated with 100 μM NaB (FIG. 15J) and NaFO (K) for additional 2 days followed by immunofluorescence analysis for MBP (red) (FIG. 15J, control; FIG. 15K, NaB; FIG. 15L, NaFO). […] Representative 3D constructed images of OPCs adhered to nanofibers were also shown at the right side.

Series [3] relates to OPCs cultured on polycaprolactone nanofibers. Briefly: Myelination of synthetic polycaprolactone nanofibers by OPCs. Type of series: cell-based, mouse. The conditions noted are these: 100 μM, 2 days after 7 days culture on nanofibers. On the procedure: FIG. 15A) After 18 h of 100 μM NaB treatment in serum-free condition, cells were fixed and then dual immuno-stained with MBP (red) and OPC marker NG2 (green). Nuclei were stained with DAPI (blue). FIG. 15B) Similarly, OPCs were stained with PLP (red) and A2B5 (green) under similar treatment condition. Quantification of MBP+(FIG. 15C), NG2+(FIG. 15D), PLP+(FIG. 15E), and A2B5+(FIG. 15F) cells as a percentage of total cells (DAPI+). Average 5 fields per slide, total 3 slides. Results are mean+SEM. ***p<0.001. FIG. 15G) For protein expression, cells were treated with different doses of NaB for 18 h under serum free condition and then immunoblotted with PLP and MOG. FIG. 15H) Densitometric analyses of the bands relative to beta actin were done for PLP and MOG. ^ap<0.001 vs. control PLP; ^bp<0.005 vs. control MOG. FIG. 151) Cells were treated with NaB (100 μM) and NaFO (100 μM) for 4 h under serum-free condition followed by monitoring the mRNA expression of myelin-specific genes by real-time PCR (ap<0.01 vs. control PLP; ^bp<0.01 vs. control MOG; cp<0.01 vs. control MBP; dp<0.01 vs. control CNPase). OPCs were cultured on the top of randomly-oriented polycaprolactone nanofibers (Nanofiber Solutions; Cat #Z694576) for 7 days. […]

Series [4] deals with cuprizone-intoxicated mice. Briefly: Remyelination of corpus callosum in cuprizone-intoxicated mouse model of demyelination. The note with it: cuprizone diet 5 weeks, then NaB 50 mg/kg body wt/d oral gavage 3 weeks. Type of series: in vivo. The method, then: FIGS. 16A-16C: Oral NaB stimulates the maturation of OPCs in vivo in the corpus callosum of cuprizone-intoxicated mice. C57/BL6 mice (8-10 week old; male) were fed cuprizone-containing diet (Envigo) for 5 weeks followed by treatment with NaB (50 mg/kg body wt/d) orally via gavage. FIG. 16A) After 3 weeks of treatment with NaB, corpus callosum sections were double-labeled for PLP and A2B5. Mean fluorescence intensity (MFI) of A2B5 (FIG. 16B) and PLP (FIG. 16C) were quantified from one section (two images per section) of each of 5 mice group. Results are mean+SEM of 5 mice per group. ***p<0.001; **p<0.01.
FIGS. 17A-17H: Effect of NaB on myelination in vivo in the corpus callosum of cuprizone-intoxicated mice. C57/BL6 mice (8-10 week old; male; n=5) were fed cuprizone-containing diet (Envigo) for 5 weeks followed by treatment with NaB (50 mg/kg body wt/d) orally via gavage. After 3 weeks of treatment with NaB, corpus callosum sections were immunostained MBP (FIG. 17A) and PLP (FIG. 17B). Mean fluorescence intensity (MFI) of MBP (FIG. 17C) and PLP (FIG. 17D) were quantified from one section (two images per section) of each of 5 mice group. Results are mean+SEM of 5 mice per group. **p<0.01; *p<0.05. FIG. 17E) Corpus callosum sections were stained for luxol fast blue (LFB). FIG. 17F) For electron microscopic studies, 50 μm thick sagittal sections were prepared and stained followed by analysis of corpus callosum sections for different parameters to evaluate axonal ultrastructures. FIG. 17G) G score was calculated in 75 axons per group for all three groups. FIG. 17H) Percentage of myelinated axons was calculated in 7 randomly selected corpus callosum sections of 5 mice per group. ***p<0.001.

In another series the test system is TBI mice. The experiment in a line: Novel object recognition (NOR) test in TBI mice. Type of series: in vivo, mouse. The note with it: 21 days post-injury, 50 mg/kg/day oral gavage. On the procedure:
This test evaluates the animal's ability to recognize the novel object in the environment and monitor short-term memory. Initially, the mice were placed in a square novel box (20 in. long×8 in. high) surrounded with an infrared sensor. Two plastic toys (2.5-3 in. size) that varied in color, shape, and texture were placed in specific locations in the environment 18in. away from each other. The mice were able to freely explore the environment and objects for 15 mins and were then placed back into their individual home cages. After 30 min intervals, the mice were placed back into the environment, with the 2 objects in the same locations, but now one of the familiar objects was replaced with a third novel object. The mice were again allowed to freely explore both objects for 15 min. The familiar and novel objects were thoroughly cleaned with a mild detergent after each testing session.

For series [5], the system named is experimental allergic encephalomyelitis (EAE) in mice. The note with it: oral, 50 mg/kg body wt/d; cited from earlier work.
Where [6] appears, read: different doses of NaB, 18 h, serum free.

As to `O=C([O-])c1ccccc1.[Na+]` [NaB, Sodium benzoate], in series [1] (21 days of treatment), the “level of PLP in corpus callosum” value was “markedly increased” and the “number of OPCs (A2B5 positive) in corpus callosum” value is on record as “decreased”. Moreover, the remyelination entry in series [1] (21 d of treatment) was “stimulates”. Further, in the series on mice with TBI, the “side effects (decrease in body weight, loss of hair, fecal boli, infection, untoward behavior)” value is on record as “did not cause any side effects”. Further, in series [2] (100 μM, 4 h, serum-free), the “mRNA expression of myelin-specific genes (MBP, PLP, MOG, CNPase), real-time PCR” value is recorded as “corroborated”. Moreover, the “differentiation/maturation of OPCs into oligodendrocytes (MBP+, PLP+, NG2+, A2B5+ cells)” value in series [2] (100 μM, 18 h, serum-free, absence of FGF and PDGF) is listed as “stimulated”. Further, in series [2] (setting [6]), the “level of MOG in OPCs (immunoblot)” value was “increased” and the “level of PLP in OPCs (immunoblot)” value was “increased”. The “myelination of synthetic fibers (MBP immunofluorescence)” value in series [3] is recorded as “stimulation of myelination”. Also, in series [4], the “MBP in corpus callosum” value was “increased”, the “level of A2B5 in corpus callosum” value is “decreased”, the “level of PLP in corpus callosum” value is “increased” and the “maturation of OPCs in vivo in the corpus callosum” value is recorded as “stimulates”. In series [4], the “remyelination in the corpus callosum” value was “can promote remyelination”.
For the compound `O=C(OCC(COC(=O)c1ccccc1)OC(=O)c1ccccc1)c1ccccc1` [GTB, Glyceryl Tribenzoate], in the series on TBI mice, the “time spent with novel object (exploration time)” value is on record as “significantly more time”. The “adoptive transfer of EAE” value in series [5] is listed as “inhibits”.
